Assay results: patent publication US10335417B2, “Thiazideamide derivative and use thereof” (Institute of Pharmacology and Toxicology Academy of …, priority 2015, dated 2019)

Tests used:
[1] = test system: chick embryo dorsal root ganglion; assay: in vitro serum-free culture model of chick embryonic dorsal root ganglion: neurite growth score with NGF; assay type: cell-based; settings: for Average score (growth of neurites of chick embryo dorsal root ganglion): 48 h, score 0-3, average of five ganglions, control 0.33
Protocol: The neurotrophic activity of the compounds according to the invention can be embodied in multiple in vitro biological models, such as in vitro serum-free culture model of chick embryonic dorsal root ganglion.
Experimental method: in a sterile environment, chick embryo, which had been incubated for 8 d, had the spinal and bilateral ganglion exposed under anatomical lens. Dorsal root ganglions were picked one by one using sharp forceps, and seeded in culture bottles spread with rat tail collagen, at a density of 5-6 ganglions per bottle, and two bottles for each dose. After attachment culture in a 37° C., 5% CO2 incubator for 1 h, serum-free medium DMEM containing nerve growth factor (NGF) (0.15 ng/mL), and the compound according to the invention were added. In the control group, only the medium and the same dose of NGF were added. After culture in the incubator for 48 h, the growth of neurite around dorsal root ganglion was observed under inverted phase contrast microscope, which was scored depending on the length and density of neurite.
Evaluation criteria: 0: no neurite; 1: rare long neurite; 2: relatively long or dense neurite; 3: long and dense neurite.

in vitro = settings: dog, MDCK-MDR1
Source text: (§1) MDCK-MDR1 cells were monolayer cells which highly express P-gp transporter after transfection of MDCK (Madin-Darby canine kidney epithelial cell) with MDR1 gene. Due to its density and high expression of efflux protein, the monolayer has similarity compared to blood-brain barrier (BBB) structure and now can be used as one of models for evaluating the ability of passing through BBB. In the invention, MDCK-MDR1 cells were used to study the membrane permeability of the compounds according to the invention, and to primarily evaluate its ability of passing through BBB.
(§2) The frozen MDCK-MDR1 cells were quickly thawed in a 37° C. water bath. To the resuscitated cells, DMEM medium containing 10% FBS was added, and the cells were cultured in an incubator at 37° C., 5% CO2, and a relative humidity of 90%. The medium was changed every other day. After fusion of the cells growing for 1-2 days, the cells were digested with 0.25% trypsin-EDTA (0.2%) mixed digestion solution at 37° C., and were sub-cultured at a certain ratio. The cells for use in experiment were those passaged for 40-60 generations.
(§3) When the cell fusion degree reached 80%, the cells were digested and then suspended in complete medium, and seeded to Millicell plate at 1×10^6 cells·mL^−1. The medium was changed every other day, and 1 week later, the medium was changed every day. After culturing for 5 days, the resistance value reached a constant value (>200 Ω·cm^2), and the cells could be used in the transport experiment.
(§4) After washing with 37° C. HBSS twice, the cells were incubated in a 37° C. culture incubator, wherein Rho-123 was added to the upper wells, and HBSS was added to the bottom wells. The incubation was carried out in a constant temperature shaker, and the solutions from the bottom wells were collected at each time point (0 min, 30 min, 90 min, 120 min), and stored at −20° C. for further use. The amount of Rho-123 permeated to the bottom well was determined by fluorospectrophotometer, wherein the emission wavelength was […], and the excitation wavelength was 530 nm.
(§5) The permeability from cavity-surface to basal surface: drug-containing HBSS 0.35 mL was add to Apical (AP), and blank HBSS 1.2 mL was added to Basolateral (BL). The Millicell was placed at 37° C. in a shaker under shaking at 50 r·min^−1, 50 μL sample was collected from the bottom well at 0, 30, 90, 120 min, respectively, and the same volume of blank HBSS was supplemented. 3 wells were set for each concentration, and to the sample, an internal standard solution (50 μL) and ethyl acetate (350 μL) were added precisely. The mixture was mixed homogeneously under shaking, and centrifuged at 12000 rmp for 5 min. The supernatant (300 μL) was volatilized to dryness, and re-dissolved in 50 μL acetonitrile. The 10 μL resultant solution was used for determination.
(§6) The permeability from basal surface to cavity surface: the drug is added to Basolateral (BL), and blank HBSS was added to Apical (AP), and the other steps were the same as those of the experiment for determining the permeability from cavity-surface to basal surface.
(§7) The apparent permeability coefficient (Papp) of a drug reflects the ability of the drug to pass through cell monolayer and the drug absorption rate and extent. It can be calculated in accordance with the following equation: […]
(§8) wherein, Q represents the amount of drug permeated in the t period, A represents cell surface area, and represents the area (0.6 cm^2) of supporting film in this model, and C0 represents an initial concentration. The unit of Papp is expressed as cm·s^−1.
(§9) By measurement using LC/MS, the concentration of each sample was quantitated using its standard curve (50 nM-10000 nM).

MDCK-MDR1 cells = assay: in vitro; settings: dog, MDCK-MDR1, 120 min
Source text: as §1, §2, §3, §4, §5, §6, §7, §8, §9

[2] = test system: BCAO-LBP mice (incomplete global cerebral ischemia); assay: mouse BCAO-LBP model of incomplete global cerebral ischemia: cerebral MDA content and neurological function score; assay type: in vivo, Kunmin mice; settings: for Neurologic deficit score / MDA content: 30 mg/kg i.g. once/d for 3 d, x ± SEM; for Neurologic deficit score: behaviour within 6 h after ligation, model group 3.92, sham 0.00; for neurologic deficit score decreased compared to the group administered with Compound 6: 30 mg/kg i.g., BCAO-LBP mice; for MDA content: whole cerebrum, model group 40.94, sham 33.15
Source text: In the Example, Kunmin mice were used as experimental subjects, intragastric (i.g.) administration was used, mouse BCAO-LBP (bilateral carotid artery occlusion with low blood pressure) model was used, and by determining neurological function score and the cerebral malondialdehyde (MDA) content in mice, the compounds were investigated for their protective effects on incomplete global cerebral ischemia in mice when administered prophylactically.
2.1.2 Preparation of a drug for intragastric administration: the compound was prepared to a 1.5 mg/ml solution using 0.7% CMC-Na solution.
28 mice, which had adapted to the laboratory environment for 1 week, were evenly grouped depending on body weight. The mice were intragastrically administered with 0.7% CMC-Na or one of the compounds, once/d, for 3 d. The groups were as followed:
Administration group: 12 mice, intragastrically administered at a dose of 0.2 ml/10 g, i.e., the dose of the compound was 30 mg/kg.
2.3.1 Mouse bilateral carotid artery ligation: 1 h after the last administration, the mice were subjected to orbital bloodletting to reduce blood pressure (which was about 30% of the total blood volume of the mice), and then fixed in supine position on the operating table, and cut in the middle of neck. Carotid artery was subjected to blunt dissection, and 2 lines were used in ligation for each side. The time counting started after the ligation with the third line, the carotid artery was cut off between the two lines, and the incision was sewn up. In the Sham-operated group, the carotid artery was only separated without ligation. After the operation, the mice were unfixed quickly, and the mice were observed and recorded for the behaviors within 6 h (scoring depending on the following table using blind method) and the death time. The brains were taken quickly after the mice died, the cerebellums were removed, and the MDA content in the whole cerebrum was determined by thiobarbituric acid (TBA).
The cerebra of mice were taken and weighed, and were prepared into 15% brain homogenate using N.S. 1.2 ml brain homogenate was placed in a 37° C. water bath for 1 h (shaking once every 10 min) and then taken out. 20% trichloroacetic acid 0.6 ml was added, and the mixture was mixed well, and was on standing for 10 min. After centrifugation at 2000 rpm for 10 min, to 1.2 ml supernatant, 0.67% TBA 0.6 ml was added. The mixture was placed in a boiling water bath for 10 min, and was taken out for cooling, and the OD value at a wavelength of 532 nm was determined.
The experimental data was expressed as x±SEM; SPSS 13.0 statistic software was used. Homogeneity or heterogeneity of variance was determined by one-factor analysis of variance. In the case of homogeneity of variance, LSD test was used; in the case of heterogeneity of variance, Dunnett's T3 test was used. Significant difference among different groups was compared, and P<0.05 indicated statistical significance.

[3] = compound 100 pM + NGF 0.15 ng/mL

| SMILES | Average score (growth of neurites of chick embryo dorsal root ganglion) ([1]; compound 1 pM + NGF 0.15 ng/mL) | Average score (growth of neurites of chick embryo dorsal root ganglion) [1, 3] | neurotrophic activity increased compared to Compound 6 ([1]; dose 1 pM) | neurotrophic activity increased compared to Compound 6 ([1]; dose 100 pM) | Papp at 120 min (in vitro) | Papp value increased compared to Compound 6 (MDCK-MDR1 cells) | Neurologic deficit score [2] | neurologic deficit score decreased compared to the group administered with Compound 6 [2] | MDA content [2] |
| --- | --- | --- | --- | --- | --- | --- | --- | --- | --- |
| CCc1ccc(S(=O)(=O)N2CCSC[C@H]2C(=O)NC(CC(C)C)C(=O)OC(C)C)cc1 (stereo in doubt) [Compound 28, (3R)-4-[(4-ethylbenzenesulfonyl)]tetrahydro-1,4-thiazin-3-carbonyl-L-leucine isopropyl ester] | 2.00 | 2.96 | 19% | 16% | 45.8 ×10⁻⁶ cm/s | above 7% | 1.87 ± 0.31 | ~10% | 30.90 ± 1.65 nmol/g |
| CCOC(=O)[C@@H](NC(=O)[C@@H]1CSCCN1S(=O)(=O)c1ccc(C)cc1)C(C)CC (stereo partly drawn) [Compound 7, (2S,3R)-ethyl-3-methyl-2((R)-(4-methylphenyl)sulfonyltetrahydro-1,4-thiazin-3-aminoformyl)valerate] | 1.46 | 1.95 |  |  | 49.8 ×10⁻⁶ cm/s | above 7% |  |  |  |
| Cc1ccc(S(=O)(=O)N2CCSC[C@H]2C(=O)N[C@@H](Cc2ccccc2)C(=O)OC(C)C)cc1 [Compound 23, (S)-isopropyl-3-phenyl-2((R)-(4-methylphenyl)sulfonyltetrahydro-1,4-thiazin-3-aminoformyl)propionate] | 2.12 | 3.21 |  |  | 44.2 ×10⁻⁶ cm/s | above 7% | 1.81 ± 0.26 | ~13% | 31.87 ± 0.95 nmol/g |
